According to US20080021054A1, “COMPOSITIONS AND TREATMENTS FOR INHIBITING KINASE AND/OR HMG-COA REDUCTASE” (priority 2004, published 2008):
Where “and” joins values, the source holds several entries; their conditions need not be identical. Equal values may be shown once.

Test system: oxazolone-induced mouse ear swelling
Assay: Model for inhibition of topical inflammation (oxazolone-induced mouse ear swelling)
Type: in vivo, BALB/c male mice
Settings: topical to right ear, ear thickness 24 hours after oxazolone challenge
Experimental: Left ears were untreated. The thickness of both ears of each animal was measured with a Dyer model micrometer gauge 24 hours after oxazolone challenge, and the net increase in thickness of right ears versus left ears was calculated for each animal. Percent inhibition was calculated according to the formula: [(Iv-It)/Iv]×100, where Iv and It respectively refer to the average net increase in right ear thickness (mm) for vehicle and candidate compound treated mice.

**Q.** `CC(C)c1c(C(=O)Nc2ccccc2)c(-c2ccccc2)c(-c2ccc(F)cc2)n1CC[C@@H]1C[C@@H](O)CC(=O)O1` [Atorvastatin lactone] was tested. Which “% Inh.” value (dose 2 × 0.3 mg) did it give?
**A.** 40%

**Q.** And the “% Inh.” value (dose 2 × 0.3 mg, listed as atorvastatin lactone)?
**A.** 50% and 58% and 40%

**Q.** And the “% Inh.” value (dose 2 × 1 mg)?
**A.** 58%

**Q.** And the “% Inh.” value (dose 2 × 2 mg)?
**A.** 50%

**Q.** How did the “% Inh.” value (dose 2 × 0.3 mg) turn out when `CC(C)c1c(C(=O)Nc2ccccc2)c(-c2ccccc2)c(-c2ccc(F)cc2)n1CC[C@@H](O)C[C@@H](O)CC(=O)O` [Atorvastatin sodium] was run?
**A.** 9%

**Q.** And the “% Inh.” value (dose 2 × 1 mg)?
**A.** 31%

**Q.** And the “% Inh.” value (dose 2 × 2 mg)?
**A.** 63%

**Q.** How did the “% Inh.” value (dose 2 × 0.3 mg) turn out when `CC(C)n1c(/C=C/C(O)CC(O)CC(=O)O)c(-c2ccc(F)cc2)c2ccccc21` (stereo not shown) [Fluvastatin sodium] was run?
**A.** 28%

**Q.** For `COc1ccc2c(c1)c(CC(=O)O)c(C)n2C(=O)c1ccc(Cl)cc1` [Indomethacin], which “% Inh.” value (dose 2 × 0.3 mg) is on record?
**A.** 44%

**Q.** For `O=C([O-])C[C@H](O)C[C@H](O)/C=C/c1c(C2CC2)nc2ccccc2c1-c1ccc(F)cc1.O=C([O-])C[C@H](O)C[C@H](O)/C=C/c1c(C2CC2)nc2ccccc2c1-c1ccc(F)cc1.[Ca+2]` [Pitavastatin calcium], which “% Inh.” value (dose 2 × 0.3 mg) is on record?
**A.** 9%

**Q.** What about the “% Inh.” value (dose 2 × 2 mg) of the same compound?
**A.** 60%

**Q.** Which “% Inh.” value (dose 2 × 0.3 mg) does the source give for `CC[C@H](C)C(=O)O[C@H]1C[C@H](O)C=C2C=C[C@H](C)[C@H](CC[C@@H](O)C[C@@H](O)CC(=O)O)[C@H]21` [Pravastatin sodium] here?
**A.** 24%

**Q.** `CC(C)c1nc(N(C)S(C)(=O)=O)nc(-c2ccc(F)cc2)c1/C=C/[C@@H](O)C[C@@H](O)CC(=O)O` [Rosuvastatin sodium] was tested. Which “% Inh.” value (dose 2 × 0.3 mg) did it give?
**A.** 20%
